The source of these data is patent US9273041B2, “Compounds for the treatment of dyslipidemia and related diseases” (Cadila Healthcare Limited, priority 2012, dated 2016).

The assay has as its target PCSK9 (Homo sapiens, UniProt Q8NBP7). Nature of the assay: PCSK9-LDLR in vitro binding assay (solid phase, ELISA readout). Particulars: read-out: % Inhibition PCSK 9. As to the method: The PCSK9-LDLR in vitro binding Assay is a quantitative solid phase binding assay between PCSK9 and recombinant LDLR. Plates were pre-coated with a recombinant LDLR-AB domain, which binds PCSK9. Test compound at different concentration was added to the PCSK9 and added to LDLR immobilized on the wells. The amount of bound PCSK9 is measured by binding it with biotinylated anti-His-tag monoclonal antibody, followed by binding with horseradish peroxidase conjugated streptavidin substrate. The color was quantified by ELISA reader at […] which reflects the relative amount of PCSK9 that binds to LDLR in presence and absence of the inhibitor. EC50 values were calculated by nonlinear regression analysis using graph pad prism software. Each concentration point represents values in duplicates.

Sequence of PCSK9 (Q8NBP7 153-692): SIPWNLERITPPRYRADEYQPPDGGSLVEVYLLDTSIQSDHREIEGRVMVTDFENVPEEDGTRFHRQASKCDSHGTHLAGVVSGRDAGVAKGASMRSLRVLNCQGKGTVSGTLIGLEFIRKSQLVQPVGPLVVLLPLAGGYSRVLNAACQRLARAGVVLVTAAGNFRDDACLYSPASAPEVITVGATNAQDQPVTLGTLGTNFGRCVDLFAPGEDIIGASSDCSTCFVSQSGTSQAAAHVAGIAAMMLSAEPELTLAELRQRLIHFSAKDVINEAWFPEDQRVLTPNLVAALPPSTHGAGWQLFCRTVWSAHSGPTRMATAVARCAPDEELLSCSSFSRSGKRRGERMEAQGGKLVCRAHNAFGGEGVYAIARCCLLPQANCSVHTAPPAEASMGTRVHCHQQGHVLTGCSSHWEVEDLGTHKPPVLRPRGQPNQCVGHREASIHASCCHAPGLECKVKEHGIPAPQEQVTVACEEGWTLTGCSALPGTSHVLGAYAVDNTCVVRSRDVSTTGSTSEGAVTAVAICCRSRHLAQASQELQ
Sequence of PCSK9 (Q8NBP7 31-152 partner limits assumed): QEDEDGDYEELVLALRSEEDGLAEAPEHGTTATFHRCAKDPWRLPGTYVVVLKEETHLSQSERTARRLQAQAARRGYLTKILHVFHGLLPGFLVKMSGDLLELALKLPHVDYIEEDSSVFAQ

Take `Cc1nc(-c2ccc(OCC(=O)NCC3CCOCC3)cc2)oc1C` [Example 39, 2-(4-(4,5-dimethyloxazol-2-yl)phenoxy)-N-((tetrahydro-2H-pyran-4-yl)methyl)acetamide]: the inhibition at 10 µM (test compound concentration 10 μM) came to 9%. Also, the inhibition at 100 µM (test compound concentration 100 μM) is 15%.
